SMILES strings stand for the structures. Read-outs that look alike come from different tables or passages of the source. Bounds are passed on as bounds.

Here are results for 1 compound from patent publication US20230365577A1, “Photodynamic Therapy and Diagnosis” (RMW CHO Group Limited, priority 2020, published 2023).

A short description of data set [1]: Singlet oxygen (1O2) production rate. Format: physicochemical. The source says: The production of singlet oxygen (^1O2), cellular phototoxicity and light-independent cytotoxicity (“dark toxicity”) of a number of phyllochlorin analogues were compared against chlorin e4 disodium and Talaporfin sodium (mono-L-aspartyl chlorin e6), the active ingredient of Laserphyrin™.

In data set [2] the test system is SKOV3 ovarian cancer cells. Kind of data set: Phototoxicity in SKOV3 cells (652 nm laser, AlamarBlue viability). Type of data set: cell-based, Human. The note with it: for IC90: Homo sapiens, SK-OV-3, light or radiation study. The method, boiled down: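 SKOV3 cells were loaded for 24 h with photosensitizer (0–10 μM in DMSO) in medium containing 10% Kollidon-12. After a media change they were irradiated at 652 nm, 50 mW/cm^2 for 5 min (15 J/cm^2), cultured a further 24 h, and viability was read by AlamarBlue in quadruplicate. Phototoxicity IC90 and dark-toxicity IC10 came from variable-slope normalized dose–response fits.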

The subject of data set [3] is 4T1 murine breast cancer cells. Kind of data set: Tumour localisation and retention, model 1 (subcutaneous 4T1 tumours). Format: in vivo, Balb/C wild type mice. The protocol:
Model 1 used Balb/C wild type mice implanted subcutaneously with 10^4×4T1 murine breast cancer cells. When tumours reached a palpable size (˜3-6 mm diameter) mice received compound 6 by either oral gavage (ORAL: 2.5 mg/kg), intravenous injection (IV: 1.0 mg/kg), or intratumoral injection (IT: 1.0 mg/kg in […]). To establish compound 6 localisation, mice were imaged using an IVIS Lumina III In Vivo Imaging System (Perkin Elmer) to detect fluorescence at 660 nm when illuminated under blue (400-460 nm) light.
In a second experiment, the localisation of compound 6 at 24 hours post-administration was compared to that of Talaporfin sodium and 5-Aminolevulinic acid (5-ALA), with all compounds injected at 0.1 mg/kg IT. Fluorescence measurements were made using an IVIS Lumina III instrument (as above).

For `C=Cc1c(C)c2cc3nc(c(C)c4cc(C)c(cc5nc(cc1[nH]2)C(C)=C5CC)[nH]4)[C@@H](CCC(=O)N(C)CCCS[C@@H]1O[C@H](CO)[C@@H](O)[C@H](O)[C@H]1O)[C@@H]3C` [Compound 6, 3-((7S,8S)-18-ethyl-2,5,8,12,17-pentamethyl-13-vinyl-7H,8H-porphyrin-7-yl)-N-methyl-N-(3-(((2S,3R,4S,5S,6R)-3,4,5-trihydroxy-6-(hydroxymethyl)tetrahydro-2H-pyran-2-yl)thio)propyl)propanamide], the “Singlet Oxygen Production (slope) 1O2” value in data set [1] was found to be 1700.0. Besides, in data set [2] (SKOV3, ovarian clear cell (Table 2), read-out: Phototoxicity IC90), the IC90 (commonly the concentration needed for an effect of 90%) was determined as 190 nM. Moreover, the IC90 in data set [2] (SKOV3, 24 h uptake, 652 nm laser 50 mW/cm2 5 mins (15 J/cm2), viability 24 h later, read-out: Cellular Toxicity: Phototoxicity IC90) was determined as 60 nM. In addition, the IC90 in data set [2] (SKOV3, read-out: Phototoxicity apparent IC90) was < 100 nM. The “Fold increase in cellular phototoxicity compared to compound 2” value in data set [2] (SKOV3, IC90) is listed as “approximately 4 fold”. The “Tumour localisation at 24 hours post-administration” value in data set [3] (0.1 mg/kg IT, primary breast tumours, IVIS fluorescence) was “localised strongly to tumour”. The “Localisation and retention in tumour tissue” value in data set [3] (IT 1.0 mg/kg, model 1) is “at least 48 hours”. In data set [3] (IV 1.0 mg/kg, model 1), the “Fluorescence retained in tumour” value is reported as “at least 4 hours”, the “Time of peak in tumour” value was determined as 1 h and the “Tumour fluorescence at 24 hours post-injection” value was “undetectable”. The “Retention in tumour tissues following administration” value in data set [3] (in all cases (models 1 and 2, all routes)) is given as “at least 24 hours”. In addition, the “Clearance from healthy tissues” value in data set [3] (in all cases, dependent on the tissue type) is 4 to 16 h. Besides, in data set [3] (oral gavage 2.5 mg/kg, model 1), the “Time of peak levels in tumour” value was determined as 4 h and the “Time remaining above background in tumour” value is listed as “at least 24 hours”.
